What was measured:
Experiment in all cases: SILAC LC-MS ABPP
Assay type in all cases: cell-based
Details in all cases: 25 μM 2 h, live DM93 cells
Q969T7 = molecular target: T1, Q969T7 (Homo sapiens, UniProt Q969T7)
T1 construct: endogenous in cells; host or cells: DM93 cells (SILAC), live-cell treatment
How it was run: (§1)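 First, heavy-labelled DM93 cells were exposed to SuTEx ligand (25 μM) and light cells to DMSO, 2 h at 37 °C. Second, HHS-475 (100 μM) was added for 2 h. Third, soluble lysates were clicked to desthiobiotin-azide, pooled 1:1, trypsin-digested, avidin-enriched and analysed by LC-MS/MS.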

P61289 = molecular target: T2, P61289 (Homo sapiens, UniProt P61289)
T2 construct: endogenous in cells; host or cells: DM93 cells (SILAC)
How it was run: as §1

Q9Y2S7 = molecular target: T3, Q9Y2S7 (Homo sapiens, UniProt Q9Y2S7)
T3 construct: endogenous in cells; host or cells: DM93 cells (SILAC)
T3 sequence (Q9Y2S7 52-368): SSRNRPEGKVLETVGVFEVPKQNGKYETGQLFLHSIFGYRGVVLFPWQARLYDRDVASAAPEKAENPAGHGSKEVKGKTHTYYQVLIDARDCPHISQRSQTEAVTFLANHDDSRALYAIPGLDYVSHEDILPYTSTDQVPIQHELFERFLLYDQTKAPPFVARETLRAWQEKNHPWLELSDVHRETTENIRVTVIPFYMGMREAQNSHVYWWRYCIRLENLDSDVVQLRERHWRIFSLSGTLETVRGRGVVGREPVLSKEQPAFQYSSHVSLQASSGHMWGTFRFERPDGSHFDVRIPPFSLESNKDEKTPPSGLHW
How it was run: as §1

O95757 = molecular target: T4, O95757 (Homo sapiens, UniProt O95757)
T4 construct: endogenous in cells; host or cells: DM93 cells (SILAC)
T4 sequence (O95757 whole entry): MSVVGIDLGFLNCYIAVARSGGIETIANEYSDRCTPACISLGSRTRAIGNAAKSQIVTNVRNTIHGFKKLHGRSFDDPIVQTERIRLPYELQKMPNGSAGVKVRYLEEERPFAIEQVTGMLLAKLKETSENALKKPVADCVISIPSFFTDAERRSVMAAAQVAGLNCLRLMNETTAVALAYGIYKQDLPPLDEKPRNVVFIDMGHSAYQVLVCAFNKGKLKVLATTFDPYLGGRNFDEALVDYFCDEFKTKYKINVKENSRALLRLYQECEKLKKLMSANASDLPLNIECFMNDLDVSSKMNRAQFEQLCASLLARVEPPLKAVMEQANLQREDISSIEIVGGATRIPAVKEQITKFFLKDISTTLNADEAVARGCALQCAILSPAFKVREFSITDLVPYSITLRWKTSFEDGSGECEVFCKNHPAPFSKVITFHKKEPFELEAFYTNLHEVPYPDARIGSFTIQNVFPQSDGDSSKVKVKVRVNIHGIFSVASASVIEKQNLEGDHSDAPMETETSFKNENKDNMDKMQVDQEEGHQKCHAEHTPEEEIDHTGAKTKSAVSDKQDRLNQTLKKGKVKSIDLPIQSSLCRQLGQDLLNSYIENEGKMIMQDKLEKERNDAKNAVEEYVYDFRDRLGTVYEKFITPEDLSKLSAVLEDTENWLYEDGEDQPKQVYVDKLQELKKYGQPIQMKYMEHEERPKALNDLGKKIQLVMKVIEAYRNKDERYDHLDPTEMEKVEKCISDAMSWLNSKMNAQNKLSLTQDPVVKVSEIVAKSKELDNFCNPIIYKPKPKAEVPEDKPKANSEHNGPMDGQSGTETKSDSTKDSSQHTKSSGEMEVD
How it was run: as §1

Q6ZSZ5 = molecular target: T5, Q6ZSZ5 (Homo sapiens, UniProt Q6ZSZ5)
T5 construct: endogenous in cells; host or cells: DM93 cells (SILAC), live-cell treatment
T5 sequence (Q6ZSZ5 whole entry): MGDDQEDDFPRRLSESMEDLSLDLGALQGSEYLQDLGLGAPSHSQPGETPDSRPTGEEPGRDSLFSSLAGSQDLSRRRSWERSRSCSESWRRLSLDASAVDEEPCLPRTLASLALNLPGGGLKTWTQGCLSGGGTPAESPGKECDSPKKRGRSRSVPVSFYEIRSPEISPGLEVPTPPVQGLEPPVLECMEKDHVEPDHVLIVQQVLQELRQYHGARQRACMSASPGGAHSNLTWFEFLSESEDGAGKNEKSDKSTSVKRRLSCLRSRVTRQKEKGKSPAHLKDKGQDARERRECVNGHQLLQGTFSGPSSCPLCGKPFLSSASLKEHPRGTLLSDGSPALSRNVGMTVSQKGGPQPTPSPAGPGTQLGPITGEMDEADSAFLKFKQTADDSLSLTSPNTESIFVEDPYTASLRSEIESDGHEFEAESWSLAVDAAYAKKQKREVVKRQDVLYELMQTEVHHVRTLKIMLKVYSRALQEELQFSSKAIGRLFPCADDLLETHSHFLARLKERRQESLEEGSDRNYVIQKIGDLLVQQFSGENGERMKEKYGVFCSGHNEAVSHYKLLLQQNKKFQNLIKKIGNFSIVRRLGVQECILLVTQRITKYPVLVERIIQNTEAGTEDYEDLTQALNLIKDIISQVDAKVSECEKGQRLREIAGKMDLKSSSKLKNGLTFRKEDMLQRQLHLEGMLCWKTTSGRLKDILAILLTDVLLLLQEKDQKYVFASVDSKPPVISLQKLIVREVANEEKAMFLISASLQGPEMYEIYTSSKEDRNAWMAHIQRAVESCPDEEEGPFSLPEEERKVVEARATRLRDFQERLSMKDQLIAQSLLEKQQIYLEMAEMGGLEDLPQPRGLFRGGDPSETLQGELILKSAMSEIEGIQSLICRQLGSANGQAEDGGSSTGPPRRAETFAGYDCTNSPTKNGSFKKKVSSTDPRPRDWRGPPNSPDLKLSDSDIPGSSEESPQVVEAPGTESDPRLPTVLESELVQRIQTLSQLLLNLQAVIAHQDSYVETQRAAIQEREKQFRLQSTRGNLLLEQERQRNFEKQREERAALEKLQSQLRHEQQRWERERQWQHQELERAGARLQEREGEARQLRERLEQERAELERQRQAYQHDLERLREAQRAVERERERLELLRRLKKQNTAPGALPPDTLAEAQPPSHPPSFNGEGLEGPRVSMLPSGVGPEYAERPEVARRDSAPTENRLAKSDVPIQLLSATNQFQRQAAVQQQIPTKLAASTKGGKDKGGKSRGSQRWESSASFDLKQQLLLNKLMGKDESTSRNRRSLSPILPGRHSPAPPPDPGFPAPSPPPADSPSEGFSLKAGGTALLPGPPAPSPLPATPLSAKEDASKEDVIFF
How it was run: as §1

Q9UFN0 = molecular target: T6, Q9UFN0 (Homo sapiens, UniProt Q9UFN0)
T6 construct: endogenous in cells; host or cells: DM93 cells (SILAC)
How it was run: as §1

Q9HCE5 = molecular target: T7, Q9HCE5 (Homo sapiens, UniProt Q9HCE5)
T7 construct: endogenous in cells; host or cells: DM93 cells (SILAC), treated live; soluble proteome analysed
How it was run: as §1

P54578 = molecular target: T8, P54578 (Homo sapiens, UniProt P54578)
T8 construct: endogenous in cells; host or cells: DM93 cells (SILAC)
How it was run: as §1

P15559 = molecular target: T9, P15559 (Homo sapiens, UniProt P15559)
T9 construct: endogenous in cells; host or cells: DM93 cells (SILAC)
How it was run: as §1

O75131 = molecular target: T10, O75131 (Homo sapiens, UniProt O75131)
T10 construct: endogenous in cells; host or cells: DM93
How it was run: as §1

O14777 = molecular target: T11, O14777 (Homo sapiens, UniProt O14777)
T11 construct: endogenous in cells; host or cells: DM93
How it was run: as §1

P12081 = molecular target: T12, P12081 (Homo sapiens, UniProt P12081)
T12 construct: endogenous in cells; host or cells: DM93 cells (SILAC)
T12 sequence (P12081 whole entry): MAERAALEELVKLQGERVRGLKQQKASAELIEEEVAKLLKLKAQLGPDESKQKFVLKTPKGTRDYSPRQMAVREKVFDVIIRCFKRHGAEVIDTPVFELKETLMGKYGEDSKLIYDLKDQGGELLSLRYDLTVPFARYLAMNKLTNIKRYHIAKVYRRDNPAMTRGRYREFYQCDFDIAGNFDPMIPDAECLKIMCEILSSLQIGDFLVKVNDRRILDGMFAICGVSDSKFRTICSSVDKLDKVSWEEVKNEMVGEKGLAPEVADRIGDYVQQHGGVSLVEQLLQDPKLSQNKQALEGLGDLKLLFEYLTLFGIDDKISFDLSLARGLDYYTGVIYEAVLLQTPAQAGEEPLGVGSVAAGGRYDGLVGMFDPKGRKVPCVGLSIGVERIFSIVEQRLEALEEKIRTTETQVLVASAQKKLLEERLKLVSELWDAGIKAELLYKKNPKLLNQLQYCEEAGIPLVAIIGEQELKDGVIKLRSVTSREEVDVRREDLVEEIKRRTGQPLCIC
How it was run: as §1

Q9H223 = molecular target: T13, Q9H223 (Homo sapiens, UniProt Q9H223)
T13 construct: endogenous in cells; host or cells: DM93 cells (SILAC), treated live; soluble proteome analysed
How it was run: as §1

P55795 = molecular target: T14, P55795 (Homo sapiens, UniProt P55795)
T14 construct: Probe-modified proteins from the soluble fraction were conjugated to a desthiobiotin-azide tag; endogenous in cells; host or cells: DM93 cells (SILAC)
T14 sequence (P55795 whole entry): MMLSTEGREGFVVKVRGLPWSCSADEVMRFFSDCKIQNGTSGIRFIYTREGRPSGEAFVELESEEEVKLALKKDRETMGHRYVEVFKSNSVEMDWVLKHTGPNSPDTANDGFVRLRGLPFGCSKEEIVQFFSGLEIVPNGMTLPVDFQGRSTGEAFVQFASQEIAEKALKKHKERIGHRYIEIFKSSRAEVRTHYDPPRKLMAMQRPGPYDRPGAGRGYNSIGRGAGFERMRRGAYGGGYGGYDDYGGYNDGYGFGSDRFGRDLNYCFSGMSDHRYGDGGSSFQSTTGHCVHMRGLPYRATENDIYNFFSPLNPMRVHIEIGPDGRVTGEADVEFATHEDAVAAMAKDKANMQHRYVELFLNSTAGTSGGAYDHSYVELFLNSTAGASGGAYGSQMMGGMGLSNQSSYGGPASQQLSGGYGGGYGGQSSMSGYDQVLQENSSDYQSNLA
How it was run: as §1

Q9UQ35 = molecular target: T15, Q9UQ35 (Homo sapiens, UniProt Q9UQ35)
T15 construct: endogenous in cells; host or cells: DM93 cells (SILAC)
How it was run: as §1

P53992 = molecular target: T16, P53992 (Homo sapiens, UniProt P53992)
T16 construct: endogenous in cells; host or cells: DM93 cells (SILAC)
T16 sequence (P53992 whole entry): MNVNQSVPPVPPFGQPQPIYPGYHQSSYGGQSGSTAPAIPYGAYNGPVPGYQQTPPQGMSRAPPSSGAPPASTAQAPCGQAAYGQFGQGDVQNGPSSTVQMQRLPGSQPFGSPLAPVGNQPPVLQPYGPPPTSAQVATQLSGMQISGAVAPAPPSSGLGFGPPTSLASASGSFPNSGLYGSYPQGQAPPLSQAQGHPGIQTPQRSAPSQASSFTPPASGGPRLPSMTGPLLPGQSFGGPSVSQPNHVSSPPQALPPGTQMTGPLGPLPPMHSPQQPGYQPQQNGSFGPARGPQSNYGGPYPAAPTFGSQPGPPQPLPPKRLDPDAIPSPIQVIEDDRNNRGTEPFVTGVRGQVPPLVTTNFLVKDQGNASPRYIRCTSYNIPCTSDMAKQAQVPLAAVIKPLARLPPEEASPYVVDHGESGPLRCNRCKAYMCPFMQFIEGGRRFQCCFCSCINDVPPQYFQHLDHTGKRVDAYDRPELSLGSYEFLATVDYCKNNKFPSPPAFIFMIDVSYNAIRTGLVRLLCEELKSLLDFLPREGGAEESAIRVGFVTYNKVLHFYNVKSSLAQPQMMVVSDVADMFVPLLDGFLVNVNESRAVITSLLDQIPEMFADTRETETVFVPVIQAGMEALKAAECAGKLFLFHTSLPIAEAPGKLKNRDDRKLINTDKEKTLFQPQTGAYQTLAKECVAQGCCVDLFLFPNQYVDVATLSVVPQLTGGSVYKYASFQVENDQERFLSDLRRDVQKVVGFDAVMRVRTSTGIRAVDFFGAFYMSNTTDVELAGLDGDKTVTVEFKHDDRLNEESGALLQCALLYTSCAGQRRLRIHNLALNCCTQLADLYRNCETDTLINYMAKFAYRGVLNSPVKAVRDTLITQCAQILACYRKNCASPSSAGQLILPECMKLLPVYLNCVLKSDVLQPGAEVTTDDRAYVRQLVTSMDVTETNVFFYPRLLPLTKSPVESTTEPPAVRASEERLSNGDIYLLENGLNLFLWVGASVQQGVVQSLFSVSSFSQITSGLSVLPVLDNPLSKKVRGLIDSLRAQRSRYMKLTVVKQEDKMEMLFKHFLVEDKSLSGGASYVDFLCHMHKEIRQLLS
How it was run: as §1

Q14694 = molecular target: T17, Q14694 (Homo sapiens, UniProt Q14694)
T17 construct: performing SuTEx compound screening directly in cells; endogenous in cells; host or cells: DM93 cells (SILAC), soluble fraction
How it was run: as §1

Q16576 = molecular target: T18, Q16576 (Homo sapiens, UniProt Q16576)
T18 construct: performing SuTEx compound screening directly in cells; endogenous in cells; host or cells: DM93 cells (SILAC), soluble fraction
T18 sequence (Q16576 whole entry): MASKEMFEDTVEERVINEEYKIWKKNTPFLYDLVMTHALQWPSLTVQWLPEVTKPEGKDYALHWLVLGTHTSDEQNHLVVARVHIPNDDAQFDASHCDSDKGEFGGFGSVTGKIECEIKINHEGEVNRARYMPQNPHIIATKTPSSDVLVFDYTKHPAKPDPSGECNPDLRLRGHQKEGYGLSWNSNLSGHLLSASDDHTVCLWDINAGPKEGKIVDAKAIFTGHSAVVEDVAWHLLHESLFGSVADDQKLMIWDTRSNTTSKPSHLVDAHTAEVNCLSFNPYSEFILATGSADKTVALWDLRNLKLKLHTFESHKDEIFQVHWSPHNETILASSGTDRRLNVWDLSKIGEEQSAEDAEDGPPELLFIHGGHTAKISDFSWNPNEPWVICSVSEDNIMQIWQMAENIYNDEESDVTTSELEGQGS
How it was run: as §1

O=C(NC1CC1)c1ccc(S(=O)(=O)n2cncn2)cc1 [HHS-0101, 4-((1H-1,2,4-triazol-1-yl)sulfonyl)-N-cyclopropylbenzamide]
liganded tyrosine site 85 (Q969T7): HHS0101.Y (tyrosine sites that showed >80% reductions (SR >5) in probe labeling in cells treated with compounds (liganded sites)) | liganded tyrosine site 196 (P61289): HHS0101.Y|HHS0201.Y|HHS0401.Y (tyrosine sites that showed >80% reductions (SR >5) in probe labeling in cells treated with compounds (liganded sites)) | liganded tyrosine site 168 (Q9Y2S7): HHS0101.Y (tyrosine sites that showed >80% reductions (SR >5) in probe labeling in cells treated with compounds (liganded sites)) | liganded tyrosine site 639 (O95757): HHS0101.Y|HHS0301.Y|HHS0401.Y (tyrosine sites that showed >80% reductions (SR >5) in probe labeling in cells treated with compounds (liganded sites))

O=C(NCC1CC1)c1ccc(S(=O)(=O)n2cncn2)cc1 [HHS-0201, 4-((1H-1,2,4-triazol-1-yl)sulfonyl)-N-(cyclopropylmethyl)benzamide]
liganded tyrosine site 1012 (Q6ZSZ5): HHS0201.Y (tyrosine sites that showed >80% reductions (SR >5) in probe labeling in cells treated with compounds (liganded sites)) | liganded tyrosine site 42 (Q9UFN0): HHS0201.Y|HHS0301.Y|HHS0401.Y|HHS0701.Y (tyrosine sites that showed >80% reductions (SR >5) in probe labeling in cells treated with compounds (liganded sites)) | liganded tyrosine site 169 (Q9HCE5): HHS0201.Y|HHS0301.Y (tyrosine sites that showed >80% reductions (SR >5) in probe labeling in cells treated with compounds (liganded sites)) | liganded tyrosine site 401 (P54578): HHS0201.Y (tyrosine sites that showed >80% reductions (SR >5) in probe labeling in cells treated with compounds (liganded sites))

O=C(NCc1ccccc1)c1ccc(S(=O)(=O)n2cncn2)cc1 [HHS-0401, 4-((1H-1,2,4-triazol-1-yl)sulfonyl)-N-benzylbenzamide]
liganded tyrosine site 76 (P15559): HHS0401.Y|HHS0701.Y (tyrosine sites that showed >80% reductions (SR >5) in probe labeling in cells treated with compounds (liganded sites)) | liganded tyrosine site 203 (O75131): HHS0401.Y (tyrosine sites that showed >80% reductions (SR >5) in probe labeling in cells treated with compounds (liganded sites))

O=C(c1ccc(S(=O)(=O)n2cncn2)cc1)N1CCC(c2ccccc2)CC1 [HHS-0701, (4-((1H-1,2,4-triazol-1-yl)sulfonyl)phenyl)(4-phenylpiperidin-1-yl)methanone]
liganded tyrosine site 310 (O14777): HHS0701.Y (tyrosine sites that showed >80% reductions (SR >5) in probe labeling in cells treated with compounds (liganded sites)) | liganded tyrosine site 168 (P12081): HHS0701.Y (tyrosine sites that showed >80% reductions (SR >5) in probe labeling in cells treated with compounds (liganded sites)) | liganded tyrosine site 172 (P12081): HHS0701.Y (tyrosine sites that showed >80% reductions (SR >5) in probe labeling in cells treated with compounds (liganded sites)) | liganded tyrosine site 70 (Q9H223): HHS0701.Y (tyrosine sites that showed >80% reductions (SR >5) in probe labeling in cells treated with compounds (liganded sites)) | liganded tyrosine site 240 (P55795): HHS0701.Y (tyrosine sites that showed >80% reductions (SR >5) in probe labeling in cells treated with compounds (liganded sites)) | liganded tyrosine site 243 (P55795): HHS0701.Y (tyrosine sites that showed >80% reductions (SR >5) in probe labeling in cells treated with compounds (liganded sites))

O=C(NC1CCCCC1)c1ccc(S(=O)(=O)n2cncn2)cc1 [HHS-0301, 4-((1H-1,2,4-triazol-1-yl)sulfonyl)-N-cyclohexylbenzamide]
liganded tyrosine site 2390 (Q9UQ35): HHS0301.Y (tyrosine sites that showed >80% reductions (SR >5) in probe labeling in cells treated with compounds (liganded sites)) | liganded tyrosine site 300 (P53992): HHS0301.Y (tyrosine sites that showed >80% reductions (SR >5) in probe labeling in cells treated with compounds (liganded sites)) | liganded tyrosine site 359 (Q14694): HHS0301.Y (tyrosine sites that showed >80% reductions (SR >5) in probe labeling in cells treated with compounds (liganded sites)) | liganded tyrosine site 153 (Q16576): HHS0301.Y|HHS0701.Y (tyrosine sites that showed >80% reductions (SR >5) in probe labeling in cells treated with compounds (liganded sites))

Reference: patent US20240210412A1, “SULFONYL-TRIAZOLE COMPOUNDS USEFUL AS LIGANDS AND INHIBITORS OF PROSTAGLANDIN REDUCTASE 2” (University of Virginia Patent Foundation, priority 2021, published 2024)
